Measured values: ChEMBL document CHEMBL1201862, “PubChem BioAssay data set” (2004)
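All cell lines were grown in 96-well plates and treated with compound for 48 hours. Abbreviation: GI50, concentration required for 50% inhibition of growth.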 The source made the active and inactive calls. Rule as the data show it: active = GI50 up to about 1.1 µM and inactive = higher.

Tests used:
Assay in all cases: inhibition of tumour cell growth, NCI panel, 48 h
[1] = test system: DU-145
[2] = test system: HCT-15
[3] = test system: Hs-578T
[4] = test system: IGROV-1
[5] = test system: K562
[6] = test system: MDA-MB-435
[7] = test system: MDA-N
[8] = test system: MOLT-4
[9] = test system: NCI-H460
[10] = test system: NCI/ADR-RES
[11] = test system: OVCAR-3
[12] = test system: RXF 393
[13] = test system: SK-MEL-28
[14] = test system: SNB-75
[15] = test system: SR
[16] = test system: TK-10
[17] = test system: UACC-257
[18] = test system: UACC-62
[19] = test system: UO-31
[20] = test system: MDA-MB-231

Row | Structure (SMILES) | GI50 [1] | GI50 [2] [µM] | GI50 [3] | GI50 [4] | GI50 [5] | GI50 [6] | GI50 [7] | GI50 [8] | GI50 [9] | GI50 [10] | GI50 [11] | GI50 [12] | GI50 [13] | GI50 [14] | GI50 [15] | GI50 [16] | GI50 [17] | GI50 [18] | GI50 [19] | GI50 [20]
1 | Cc1ccc(C2=C(Cl)C(=O)C(c3ccc(C)cc3)=C(Cl)C2=O)cc1 | > 100 µM (inactive) | > 100 | > 100 µM (inactive) | > 100 µM (inactive) | > 100 µM (inactive) | > 100 µM (inactive) | > 100 µM (inactive) | > 100 µM (inactive) | > 100 µM (inactive) | > 100 µM (inactive) | > 100 µM (inactive) | > 100 µM (inactive) | > 100 µM (inactive) | > 100 µM (inactive) | > 100 µM (inactive) | > 100 µM (inactive) | > 100 µM (inactive) | > 100 µM (inactive) | > 100 µM (inactive) | 
2 | CN(C)CCCNC(=O)CNC(=O)c1cc(NC(=O)c2cc(NC(=O)c3cc(NC(=O)CCNC(=O)c4cc(NC(=O)c5cc(NC(=O)c6nccn6C)cn5C)cn4C)cn3C)cn2C)cn1C | > 100 µM (inactive) | > 100 | > 100 µM (inactive) | > 100 µM (inactive) | 59.4 µM (inactive) | > 100 µM (inactive) | > 100 µM (inactive) | 20.8 µM (inactive) | > 100 µM (inactive) | > 100 µM (inactive) | > 100 µM (inactive) |  | > 100 µM (inactive) | 41.3 µM (inactive) |  | > 100 µM (inactive) | > 100 µM (inactive) |  | > 100 µM (inactive) | > 100 µM (inactive)
3 | CSC1=NN=C(SC)NN1 | 0.202 µM (active) | 0.169 | 0.161 µM (active) | 0.166 µM (active) | 0.117 µM (active) | 0.182 µM (active) | 0.18 µM (active) | 0.027 µM (active) | 0.196 µM (active) | 0.3 µM (active) | 0.185 µM (active) |  | 0.186 µM (active) |  | 0.0204 µM (active) | 0.213 µM (active) | 0.131 µM (active) | 0.148 µM (active) | 0.188 µM (active) | 0.22 µM (active)
4 | N#CCCN(CCN(CCN(C(=O)Nc1ccccc1)c1ccccc1)C(=O)Nc1ccccc1)C(=O)Nc1ccccc1 | > 100 µM (inactive) | > 100 | 26 µM (inactive) | 43.9 µM (inactive) |  | 20.7 µM (inactive) | > 100 µM (inactive) | 4.43 µM (inactive) |  | > 100 µM (inactive) | > 100 µM (inactive) | > 100 µM (inactive) | > 100 µM (inactive) | 67.6 µM (inactive) |  | > 100 µM (inactive) | > 100 µM (inactive) | > 100 µM (inactive) | > 100 µM (inactive) | > 100 µM (inactive)
5 | S=c1[nH]c2c(Cl)c(Cl)c(Cl)c(Cl)c2[nH]1 | 36.1 µM (inactive) | 22 | 18.5 µM (inactive) | 14.1 µM (inactive) | 7.23 µM (inactive) | 17.5 µM (inactive) | 17.3 µM (inactive) | 4.8 µM (inactive) | 19.4 µM (inactive) | 18.5 µM (inactive) | 26.7 µM (inactive) | 18.1 µM (inactive) |  |  |  | 22 µM (inactive) | 19.4 µM (inactive) | 15.2 µM (inactive) | 16 µM (inactive) | 17.8 µM (inactive)
6 | Nc1c(C(=O)O)nnc2cc(Cl)c(Cl)cc12 | > 100 µM (inactive) | > 100 | > 100 µM (inactive) | > 100 µM (inactive) | > 100 µM (inactive) | > 100 µM (inactive) | > 100 µM (inactive) | > 100 µM (inactive) | > 100 µM (inactive) | > 100 µM (inactive) | > 100 µM (inactive) |  |  | > 100 µM (inactive) | > 100 µM (inactive) | > 100 µM (inactive) | > 100 µM (inactive) | > 100 µM (inactive) | 56.9 µM (inactive) | > 100 µM (inactive)
7 | Cc1nnc([C@@]2(C)CC[C@H]3[C@@H](CCC4=CC(=O)CC[C@@]43C)[C@@H]2CC#N)o1 |  | > 100 | > 100 µM (inactive) | > 100 µM (inactive) | > 100 µM (inactive) | > 100 µM (inactive) | > 100 µM (inactive) | > 100 µM (inactive) |  | > 100 µM (inactive) | > 100 µM (inactive) | > 100 µM (inactive) |  | 41 µM (inactive) | > 100 µM (inactive) | > 100 µM (inactive) | > 100 µM (inactive) | > 100 µM (inactive) | > 100 µM (inactive) | > 100 µM (inactive)
8 | COC(=O)[C@]1(C)CC[C@]2(C)CC[C@]3(C)C4[C@H]5Oc6c(cc7c(c6C)CCC6[C@@]7(C)CC[C@@]7(C)C8[C@](C)(CCC[C@@]8(C)C(=O)OC)CC[C@]67C)O[C@H]5c5c(cc6c(c5C)O[C@@]5(C)C7=CC=C8[C@@](C)(CC[C@@]9(C)[C@@H]%10C[C@](C)(C(=O)OC)CC[C@]%10(C)CC[C@]89C)C7=CC(=O)[C@@]5(O)O6)[C@]4(C)CC[C@@]3(C)C2C1 (some centres not stated) | 3.6 µM (inactive) | 3.45 | 5.78 µM (inactive) | 2.62 µM (inactive) | 3.46 µM (inactive) | 3.56 µM (inactive) | 1.93 µM (inactive) | 1.39 µM (inactive) | 8.91 µM (inactive) | > 12.5 µM (inactive) | 2.64 µM (inactive) | 1.91 µM (inactive) | 7.53 µM (inactive) | 2.79 µM (inactive) |  | 2.6 µM (inactive) | 2.83 µM (inactive) | 2.32 µM (inactive) | 2.52 µM (inactive) | 3.11 µM (inactive)
9 | COc1ccc(C2SCC(=O)N2c2ccc(-c3ccc(-n4c(-c5ccccc5)nc5ccccc5c4=O)cc3)cc2)cc1 (configuration not stated) | 42 µM (inactive) | 44.5 | 25.9 µM (inactive) | 62.2 µM (inactive) | 30.4 µM (inactive) | 49.7 µM (inactive) | 65.9 µM (inactive) | 31.8 µM (inactive) | 34.4 µM (inactive) | 96.2 µM (inactive) | 17.5 µM (inactive) |  | > 100 µM (inactive) |  | 19.5 µM (inactive) | 45.2 µM (inactive) | > 100 µM (inactive) | 33 µM (inactive) | > 100 µM (inactive) | 54.6 µM (inactive)
10 | CN(C)c1ccc(C=C2C(=O)N(c3ccccc3)N(c3ccccc3)C2=O)cc1 | > 100 µM (inactive) | > 100 | 60.8 µM (inactive) | > 100 µM (inactive) | 61.4 µM (inactive) | 81.1 µM (inactive) | > 100 µM (inactive) | 65.6 µM (inactive) |  |  | > 100 µM (inactive) |  | > 100 µM (inactive) | 53.7 µM (inactive) | > 100 µM (inactive) | > 100 µM (inactive) |  | > 100 µM (inactive) | > 100 µM (inactive) | > 100 µM (inactive)
11 | Cc1ccc(S(=O)(=O)N2C[C@](O)(c3ccccc3)[C@H]2C)cc1 | > 100 µM (inactive) | > 100 | > 100 µM (inactive) | > 100 µM (inactive) |  | > 100 µM (inactive) | > 100 µM (inactive) | 44.2 µM (inactive) | > 100 µM (inactive) | > 100 µM (inactive) |  | > 100 µM (inactive) | > 100 µM (inactive) | 89.3 µM (inactive) |  | > 100 µM (inactive) | > 100 µM (inactive) | > 100 µM (inactive) | > 100 µM (inactive) | > 100 µM (inactive)
12 | C[n+]1c(-c2ccc(/C=N/NC(=O)C(=O)N/N=C/c3ccc(-c4cn5ccsc5[n+]4C)cc3)cc2)cn2ccsc21 |  | > 100 | > 100 µM (inactive) | > 100 µM (inactive) | > 100 µM (inactive) | 48.2 µM (inactive) | 47.8 µM (inactive) | > 100 µM (inactive) | > 100 µM (inactive) | > 100 µM (inactive) |  |  | 87.3 µM (inactive) | > 100 µM (inactive) | > 100 µM (inactive) | > 100 µM (inactive) | > 100 µM (inactive) |  | > 100 µM (inactive) | > 100 µM (inactive)
13 | CC1(C)N=C(N)N=C(N)N1c1cccc(OCCOc2ccc([N+](=O)[O-])cc2)c1 | 20.1 µM (inactive) | > 100 | > 100 µM (inactive) | 1.96 µM (inactive) | 41.9 µM (inactive) | 5.04 µM (inactive) | 5.26 µM (inactive) | > 100 µM (inactive) | 7.53 µM (inactive) |  | 41.6 µM (inactive) | 21.8 µM (inactive) | 53.3 µM (inactive) |  | 0.238 µM (active) | > 100 µM (inactive) | 57.7 µM (inactive) |  |  | > 100 µM (inactive)
14 | CC(=O)c1cc2c(s1)C(=O)c1ccsc1C2=O | 0.309 µM (active) | 0.179 | 0.158 µM (active) | 1.75 µM (inactive) | 0.407 µM (active) | 0.0713 µM (active) | 0.0802 µM (active) | 0.438 µM (active) |  | 0.378 µM (active) | 0.22 µM (active) | 0.244 µM (active) | 0.185 µM (active) | 0.192 µM (active) |  | 1.97 µM (inactive) | 0.132 µM (active) | 0.255 µM (active) | 0.243 µM (active) | 0.327 µM (active)
15 | O=C1O/C(=C\c2ccc(O)c(Br)c2)C(c2ccc(O)cc2)=C1Cl | 61.1 µM (inactive) | 36.6 | 37.1 µM (inactive) | 55.6 µM (inactive) | 68.4 µM (inactive) | 33.3 µM (inactive) | 26.1 µM (inactive) | 65.8 µM (inactive) | 26.6 µM (inactive) | 29.6 µM (inactive) | 27.2 µM (inactive) | 29.9 µM (inactive) | > 100 µM (inactive) | 53.3 µM (inactive) | 35.1 µM (inactive) | 45.6 µM (inactive) | 42.7 µM (inactive) | 16.4 µM (inactive) | 48.2 µM (inactive) | 
